Assays:
[1] = system: replicon RNA transcribed from SC2R; format: cell-based, SARS-CoV-2
[2] = system: replicon RNA transcribed from NOBEVR; assay: microbe, parasite or virus in culture; format: cell-based, Nobecovirus
[3] = system: replicon RNA transcribed from HKU1; format: cell-based, Embecovirus
[4] = system: replicon RNA transcribed from MERVR; format: cell-based, MERS-CoV
[5] = system: replicon RNA transcribed from SCVR; format: cell-based, SARS-CoV-1
[6] = Evaluation of cytotoxicity (WST-1); conditions: human, HuH-7.6c cells
[7] = system: replicon RNA transcribed from SC2R; assay: microbe, parasite or virus in culture; format: cell-based, SARS-CoV-2; conditions: Severe acute respiratory syndrome coronavirus 2, 48 h, read-out: EC50, inhibition of the replication of replicon RNA transcribed from SC2R
HCV replicon RNA = assay: HCV subgenomic replicon replication, Renilla luciferase activity; format: cell-based, genotype 1b HCV (1B-4 strain); conditions: Hepatitis C virus; 72 hours, RL activity, FIG. 15B; read-out: EC50, inhibition of the replication of HCV replicon RNA

Row | Structure (SMILES) | replication of replicon RNA in HKU1 [3] | replication of replicon RNA in NOBEVR [2] | replication of replicon RNA transcribed from SC2R [1] | replication of replicon RNA transcribed from MERVR [4] | replication of replicon RNA transcribed from HKU1 [3] | replication of replicon RNA transcribed from SCVR [5] | replication of replicon RNA transcribed from NOBEVR [2] | further results
1 | COc1cc2c(cc1OC)[C@@H](Cc1ccc(Oc3cc(C[C@@H]4c5cc(OC)c(OC)cc5CCN4C)ccc3O)cc1)N(C)CC2 [dauricine] |  |  |  |  |  |  |  | replicon RNA replication inhibitory activity against SC2R [1]: replicon RNA replication inhibitory activity; inhibitory activity against the replication of replicon RNA transcribed from NOBEVR [2]: strong inhibitory activity
2 | NC(=O)c1nc(F)c[nH]c1=O [favipiravir] | did not inhibit | did not inhibit |  |  |  |  |  | 
3 | CC1(C)CCC(c2ccc(Cl)cc2)=C(CN2CCN(c3ccc(C(=O)NS(=O)(=O)c4ccc(N[C@H](CCN5CCOCC5)CSc5ccccc5)c(S(=O)(=O)C(F)(F)F)c4)cc3)CC2)C1 [navitoclax] |  |  | inhibited | inhibited | inhibited | inhibited | inhibited | inhibitory activity against the replication of replicon RNA transcribed from NOBEVR [2]: inhibitory activity; EC50 ([2]; Nobecovirus, 48 h, read-out: EC50, inhibition of the replication of replicon RNA transcribed from NOBEVR): 280 nM; CC50 at 48 h [6]: 18600 nM
4 | CN(C)CC#Cc1ccc(OCCCc2sc(N3CCc4cccc(C(=O)Nc5nc6ccccc6s5)c4C3)nc2C(=O)O)c(F)c1 [A-1155463] |  |  | inhibited | inhibited | inhibited | inhibited | inhibited | concentration responsiveness of the replication level of SARS-CoV-2 replicon RNA [1]: inhibited the replication of replicon RNA transcribed from SC2R in a concentration-dependent manner
5 | COc1cc2c(cc1O)[C@@H](Cc1ccc(O)c(Oc3ccc(C[C@@H]4c5cc(OC)c(OC)cc5CCN4C)cc3)c1)N(C)CC2 [daurisoline] |  |  |  |  |  |  |  | replicon RNA replication inhibitory activity against SC2R [1]: replicon RNA replication inhibitory activity; inhibitory activity against the replication of replicon RNA transcribed from NOBEVR [2]: strong inhibitory activity
6 | CCC(CC)COC(=O)[C@H](C)N[P@](=O)(OC[C@H]1O[C@@](C#N)(c2ccc3c(N)ncnn23)[C@H](O)[C@@H]1O)Oc1ccccc1 [remdesivir] | did not inhibit | did not inhibit |  |  |  |  |  | 
7 | CC(C)=CCC[C@]1(C)C=Cc2c(O)c3c(c(CC=C(C)C)c2O1)O[C@]12C(=C[C@@H]4C[C@H]1C(C)(C)O[C@@]2(C/C=C(/C)C(=O)O)C4=O)C3=O [gambogic acid] |  |  | inhibited |  |  |  |  | 
8 | Cn1cnc(Cn2c(=O)[nH]/c(=N\c3cc4cn(C)nc4cc3Cl)n(Cc3cc(F)c(F)cc3F)c2=O)n1.O=C(O)/C=C/C(=O)O [ensitrevir fumarate] | did not inhibit | did not inhibit |  |  |  |  |  | 
9 | Cc1c(-c2ccc(N3CCc4cccc(C(=O)Nc5nc6ccccc6s5)c4C3)nc2C(=O)O)cnn1CC12CC3CC(CC(C3)C1)C2 [A-1331852] |  |  | inhibited | inhibited | inhibited | inhibited | inhibited | EC50 [7]: 1.46 nM; EC50 (HCV replicon RNA): 14.8 nM
10 | CN(C)CC[C@H](CSc1ccccc1)Nc1ccc(S(=O)(=O)NC(=O)c2ccc(N3CCN(Cc4ccccc4-c4ccc(Cl)cc4)CC3)cc2)cc1[N+](=O)[O-] [ABT-737] |  |  | inhibited | inhibited | inhibited | inhibited | inhibited | 
11 | CC1(C)CCC(CN2CCN(c3ccc(C(=O)NS(=O)(=O)c4ccc(NCC5CCOCC5)c([N+](=O)[O-])c4)c(Oc4cnc5[nH]ccc5c4)c3)CC2)=C(c2ccc(Cl)cc2)C1 [venetoclax] |  |  | did not inhibit |  |  |  |  | 
12 | CC(C)(C)[C@H](NC(=O)C(F)(F)F)C(=O)N1C[C@H]2[C@@H]([C@H]1C(=O)N[C@H](C#N)C[C@@H]1CCNC1=O)C2(C)C [PF-07321332] | did not inhibit | did not inhibit |  |  |  |  |  | 

From patent EP4678750A1 (priority 2023, dated 2024)
